In patent publication US9061015B2, “Stable solid dispersion of a derivative of vinca alkaloid and process for manufacturing it” (PIERRE FABRE MEDICAMENT, priority 2004, dated 2015):

Legend:
[1] = Required storage temperature (stability); format: physicochemical; settings: regardless of form (amorphous or crystalline) and degree of division
[2] = Physicochemical stability on storage at 25° C./60% RH: variation of the content of impurities compared with t0; settings: after 6 months 25° C./60% RH compared with t0
Procedure: Variation of the content of impurities (in % relative) after 6 months 25° C./60% RH compared with t0.
Other hydrophilic polymers such as polyethyleneglycols were tested.

With `CCC1=C[C@@H]2CN(C1)Cc1c([nH]c3ccccc13)[C@@](C(=O)OC)(c1cc3c(cc1OC)N(C)[C@H]1[C@@](O)(C(=O)OC)[C@H](OC(C)=O)[C@]4(CC)C=CCN5CC[C@]31[C@@H]54)C2` [Vinorelbine ditartrate, vinorelbine ditartrate] the “temperature at which it must be kept” value [1] was “below −15 °C”, the “4-0-deacetylvinorelbine impurity, variation of the content” value [2] was “+0.05 % relative” and the “6′-N-methylvinorelbine impurity, variation of the content” value [2] was “+0.05 % relative”. The “6′-N-oxyvinorelbine impurity, variation of the content” value [2] was “+0.37 % relative”, the “S/D6 impurity, variation of the content” value [2] was “+1.02 % relative” and the “Total impurities, variation of the content” value [2] was “+1.87 % relative”.
